The values below come from US20080070984A1, “Compositions and Methods of Treating Schizophrenia” (priority 2006, published 2008).

This series in a line: Uptake of colonically absorbable forms of levodopa after intracolonic administration in rats. Conditions: whole blood, other: intracolonic (directly into the colon via cannula), rat, intraperitoneal carbidopa. Type of series: in vivo. As for the experimental part:
Sustained release oral dosage forms, which release drug slowly over periods of about 6 to about 24 hours, generally release a significant proportion of the dose within the colon. Thus, drugs suitable for use in such dosage forms should be colonically absorbed.
Rats were obtained commercially and were pre-cannulated in the both the ascending colon and the jugular vein. Animals were conscious at the time of the experiment. […] Carbidopa was administered as a solution in water or citrate buffer either orally, intraperitoneally, or intracolonically at a dose equivalent to 25 mg of carbidopa per kg. […] Blood was then further quenched with methanol/perchloric acid to prevent hydrolysis of the levodopa prodrug. Blood samples were analyzed as described below.
Methanol/perchloric acid (300 μL) was added to blank 1.5 mL Eppendorf tubes. Rat blood (300 μL) was collected into EDTA tubes containing 75 μL of sodium metabisulfite at different times and vortexed to mix. A fixed volume of blood (100 μL) was immediately added into the Eppendorf tube and vortexed to mix. […] Methanol/perchloric acid (300 μL of 50/50) was then added into each tube followed by the addition of 20 μL of p-chlorophenylalanine. The samples were vortexed and centrifuged at 14,000 rpm for 10 min. The supernatant was analyzed by LC/MS/MS. […]

By bioavailability is commonly meant the share of a dose that reaches the circulation, judged against a reference dose that is usually intravenous. Low readings indicate poor availability, high ones good availability. For the molecule `N[C@@H](Cc1ccc(O)c(O)c1)C(=O)O` [levodopa], the bioavailability was 3%.
